Results taken from the supplement of paper PMC10331698.
± gives the standard deviation of the averaged measurements.

Tests used:
Assay in all cases: level (log10 ratio to DMSO vehicle control); higher = higher biomarker level / cell amount than vehicle control
[1] = compound: C=C(C)C(=O)OCCC(F)(F)C(F)(F)C(F)(F)C(F)(F)C(F)(F)C(F)(F)C(F)(F)C(F)(F)F [8:2 Fluorotelomer methacrylate] (in DMSO)
Method: (§1)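 BioMAP Diversity Plus panel of 12 human primary cell co-culture systems (3C, 4H, LPS, SAg, BT, BF4T, BE3C, CASM3C, HDF3CGF, KF3CT, MyoF, Mphg). Compounds were added 1 h before stimulation and left for 24 h (MyoF 48 h; BT 72 h for soluble read-outs or 6 d for IgG). Biomarkers were read by ELISA, cytotoxicity by SRB, PBMC viability and proliferation by Alamar Blue. Each well value was divided by the mean of 8 DMSO control wells on the same plate and log10 transformed; duplicate blinded samples were tested at 4 concentrations.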

[2] = compound: O=C(O)C(F)(F)C(F)(F)C(F)(F)C(F)(F)C(F)(F)C(F)(F)C(F)(F)C(F)(F)F [Perfluorononanoic acid] (in DMSO)
Method: as §1

[3] = compound: O=C(O)C(F)(F)OC(F)(F)C(F)(F)OC(F)(F)C(F)(F)OC(F)(F)C(F)(F)C(F)(F)C(F)(F)F [Perfluoro-3,6,9-trioxatridecanoic acid] (in DMSO); settings: 6700 nM
Method: as §1

[4] = compound: O=C(O)C(F)(OC(F)(F)C(F)(F)C(F)(F)F)C(F)(F)F [Ammonium perfluoro-2-methyl-3-oxahexanoate] (in Water)
Method: as §1

[5] = compound: O=C(O)C(F)(OC(F)(F)C(F)(OC(F)(F)C(F)(OC(F)(F)C(F)(F)C(F)(F)F)C(F)(F)F)C(F)(F)F)C(F)(F)F [Perfluoro-(2,5,8-trimethyl-3,6,9-trioxadodecanoic)acid] (in DMSO)
Method: as §1

[6] = compound: O=C(O)CCC(F)(C(F)(F)F)C(F)(F)F [4,4-bis(Trifluoromethyl)-4-fluoropropanoic acid] (in DMSO)
Method: as §1

[7] = compound: OCC(F)(F)C(F)(F)C(F)(F)C(F)F [1H,1H,5H-Perfluoropentanol] (in DMSO)
Method: as §1

[8] = compound: OCC(F)(F)OC(F)(F)C(F)(F)OC(F)(F)C(F)(F)OC(F)(F)CO [1H,1H,11H,11H-Perfluorotetraethylene glycol] (in DMSO)
Method: as §1

Row | Test System | level (log10) ([1]; 6700 nM) | level (log10) ([1]; 20000 nM) | level (log10) ([2]; 6700 nM) | level (log10) ([2]; 20000 nM) | level (log10) [3] | level (log10) ([4]; 6700 nM) | level (log10) ([4]; 20000 nM) | level (log10) ([4]; 60000 nM) | level (log10) ([5]; 1100 nM) | level (log10) ([5]; 3300 nM) | level (log10) ([5]; 10000 nM) | level (log10) ([6]; 6700 nM) | level (log10) ([6]; 20000 nM) | level (log10) ([6]; 60000 nM) | level (log10) ([7]; 6700 nM) | level (log10) ([7]; 20000 nM) | level (log10) ([7]; 60000 nM) | level (log10) ([8]; 6700 nM) | level (log10) ([8]; 20000 nM) | level (log10) ([8]; 60000 nM)
1 | BE3C:PAI-I | 0.001 ± 0.041 | -0.013 ± 0.076 | -0.013 ± 0.042 | -0.101 ± 0.019 | -0.526 ± 0.018 | -0.0995 ± 0.057 | -0.092 ± 0.044 | -0.124 ± 0.012 | -0.0265 ± 0.036 | -0.0315 ± 0.022 | 0.006 ± 0.064 | 0.009 ± 0.018 | -0.004 ± 0.018 | 0.006 ± 0.061 | -0.043 ± 0.021 | 0.023 ± 0.048 | 0.0495 ± 0.047 | 0.0145 ± 0.012 | -0.0035 ± 0.021 | -0.072 ± 0.018
2 | MyoF:TIMP-1 | 0.0115 ± 0.08 | 0.0185 ± 0.026 | 0.0025 ± 0.03 | -0.034 ± 0.033 | -0.112 ± 0.0085 | -0.0395 ± 0.0092 | -0.0635 ± 0.015 | -0.068 ± 0.0028 | 0.007 ± 0.0014 | 0.0155 ± 0.013 | 0.022 ± 0.024 | -0.0245 ± 0.091 | -0.042 ± 0.064 | -0.0345 ± 0.025 | 0.0015 ± 0.026 | 0.004 ± 0.054 | 0.039 ± 0.027 | -0.0035 ± 0.012 | 0.017 | 0.0285 ± 0.005
3 | CASM3C:CD142/Tissue Factor | -0.023 ± 0.018 | -0.0195 ± 0.057 | -0.093 ± 0.064 | -0.115 ± 0.14 | 0.013 ± 0.02 | 0.022 ± 0.013 | -0.0045 ± 0.028 | -0.009 ± 0.089 | 0.0095 ± 0.018 | 0.0085 ± 0.011 | 0.0025 ± 0.015 | -0.0325 ± 0.047 | -0.011 | 0.0385 ± 0.049 | -0.0605 ± 0.044 | -0.0695 ± 0.035 | -0.0195 ± 0.094 | -0.0165 ± 0.032 | -0.024 ± 0.013 | -0.0125 ± 0.0035
4 | lMphg:CD106/VCAM-1 | -0.0245 ± 0.0035 | -0.0315 ± 0.016 | 0.001 ± 0.04 | -0.005 ± 0.02 | -0.017 ± 0.011 | -0.0195 ± 0.0035 | -0.013 ± 0.0028 | -0.0085 ± 0.0035 | 0.001 ± 0.0014 | 0.003 ± 0.021 | 0.0015 ± 0.044 | -0.007 ± 0.011 | 0.0005 ± 0.0092 | -0.009 ± 0.017 | -0.0035 ± 0.021 | 0.0165 ± 0.037 | 0.0145 ± 0.018 | -0.015 ± 0.024 | 0.009 ± 0.05 | 0 ± 0.04
5 | MyoF:Collagen IV | -0.0265 ± 0.015 | -0.027 ± 0.025 | 0.0215 ± 0.022 | 0.221 ± 0.063 | 0.412 ± 0.089 | -0.013 ± 0.0057 | 0.0045 ± 0.011 | 0.0105 ± 0.012 | 0.034 ± 0.054 | 0.0255 ± 0.037 | 0.0225 ± 0.025 | -0.0105 ± 0.025 | -0.0185 ± 0.023 | 0.0035 ± 0.00071 | -0.001 ± 0.0014 | -0.0005 ± 0.0064 | 0.0095 ± 0.00071 | -0.012 ± 0.0014 | -0.0015 ± 0.011 | 0.0245 ± 0.021
6 | MyoF:alpha-SM Actin | -0.009 ± 0.081 | 0.0025 ± 0.079 | -0.0165 ± 0.028 | -0.0645 ± 0.042 | -0.24 ± 0.025 | 0.001 ± 0.011 | 0.0005 ± 0.022 | -0.0035 ± 0.0035 | -0.002 ± 0.027 | -0.0105 ± 0.00071 | 0.002 ± 0.062 | 0.0205 ± 0.093 | 0.03 ± 0.095 | 0.0195 ± 0.079 | -0.04 ± 0.059 | -0.0045 ± 0.018 | 0 ± 0.017 | -0.0125 ± 0.026 | -0.057 ± 0.0042 | -0.167 ± 0.037
7 | MyoF:Decorin | -0.0145 ± 0.0021 | -0.004 ± 0.0057 | 0.0125 ± 0.028 | 0.0545 ± 0.0035 | 0.033 ± 0.037 | -0.048 ± 0.023 | -0.02 ± 0.0085 | -0.024 ± 0.013 | 0 ± 0.013 | -0.0065 ± 0.013 | 0.012 | -0.0215 ± 0.025 | -0.015 ± 0.044 | -0.001 ± 0.04 | 0 ± 0.089 | 0.029 ± 0.12 | 0.0455 ± 0.15 | -0.009 | -0.013 | 0.019 ± 0.017
